The numbers were not newly measured in patent EP0553294B1, “THE MANUFACTURE OF COMPOSITIONS FOR THE TREATMENT OF CELL PRO[…]” (AMGEN INC., priority 1990, dated 1992), which cites them from elsewhere.

In the data set the test system is Kaposi's Sarcoma. The conditions noted are these: administered alone; general statement, no test described.

As to `Cc1cn([C@H]2C[C@H](N=[N+]=[N-])[C@@H](CO)O2)c(=O)[nH]c1=O` [AZT, zidovudine], the “effectiveness on Kaposi's Sarcoma” value is listed as “not effective”.
